Test [1] relates to dorsal muscles of goats. Nature of the test: Osteoinductive potential of TCP ceramic loaded with lithium chloride, intramuscular implantation in goats (histology, histomorphometry). Type of test: in vivo. Particulars: LiCl in TCP; improved osteoinductivity. The protocol: The osteoinductive potential of TCP ceramic loaded with lithium chloride was tested in a pilot study in muscle of goats. After sterilization (autoclaving at 121° C. for 30 minutes), a volume of 1.0 cc of 1-3 mm ceramic particles (granules) of each TCP-only, TCP with 5 mmol LiCl/100 g, TCP with 15 mmol LiCl/100 g and TCP with 45 mmol LiCl/100 g were implanted in dorsal muscles of 4 goats for 12 weeks (total 4 implants in each of 4 goats).
Twelve weeks after implantation the animals Were sacrificed and the implants were harvested with surrounding tissues and fixed in 1.5% glutaraldehyde in 0.14M cacodylate buffer. The fixed samples were dehydrated in a graded series of aqueous ethanol solutions (70%, 80%, 90%, 96% and 100%×2) and finally embedded in MMA. Non-decalcified sections (10-20 μm) were prepared and stained with methylene blue and basic fuchsin for histological observation and histomorphometrical analysis regarding bone formation.
Histomorphometry was performed on the sections across the middle of the implants with regard to the percentage of the formed bone in the available space.

Test [2] has as its system dorsal muscles of goats. Description: Osteoinductive potential of sodium fluoride-loaded TCP ceramic, intramuscular implantation in goats (histology, histomorphometry). In kind it is in vivo. Particulars: NaF in TCP; improved osteoinductivity. The protocol: The osteoinductive potential of sodium fluoride-loaded TCP ceramic was tested in a pilot study in muscles of goats. After sterilization (autoclaving at 121° C. for 30 minutes), a volume of 1.0 cc of 1-3 mm ceramic particles (granules) of each TCP-only, TCP with 8 mmol NaF/100 g, TCP with 16 mmol NaF/100 g and TCP with 24 mmol NaF/100 g were implanted in dorsal muscles of 4 goats for 12 weeks (total 4 implants in each of 4 goats).
Twelve weeks after implantation the animals were sacrificed and the implants were harvested with surrounding tissues and fixed in 1.5% glutaraldehyde in 0.14M cacodylate buffer. The fixed samples were dehydrated in a graded series of aqueous ethanol solutions (70%, 80%, 90%, 96% and 100%×2) and finally embedded in methyl methacrylate (MMA). Using standard procedures non-decalcified sections (10-20 μm) were made and stained with methylene blue and basic fuchsin for histological observation and histomorphometrical analysis regarding bone formation.
Histomorphometry was performed on the sections across the middle of the implants and to the percentage of the formed bone in the available space was measured using image analysis.

As to `[Cl-].[Li+]` [LiCl, lithium chloride], in the test on dorsal muscles of goats [1], the “effective amount of trace element in TCP” value is 5-45 mmol LiCl/100 g and the “optimum amount of trace element in TCP” value is “around 15 mmol LiCl/100 g TCP”.
Turning to `[F-].[Na+]` [NaF, sodium fluoride], in the test on dorsal muscles of goats [2], the “effective amount of trace element in TCP” value was 8-24 mmol NaF/100 g and the “optimum amount of trace element in TCP” value is recorded as “around 16 mmol NaF/100 g TCP”.

The record behind these values is patent US8460685B2, “Method of improving the osteoinductivity of calcium phosphate” (Progentix Orthobiology B.V., priority 2005, dated 2013).
